# Source: ChEMBL document CHEMBL3885861, “Open TG-GATES”
# Species: Rattus norvegicus
# Test: Open TG-GATES - Regimen: Daily Repeat
# Assay type: toxicity, organism-based, Sprague-Dawley
# Set-up: regimen Daily Repeat, gender Male, age 6 weeks
# Conditions: in vivo, po, route gavage; for KIDNEY_L / KIDNEY_R / KIDNEY_TOTAL: tissue Kidney; for ALP / ALT / AST / BUN / CRE / Ca / Cl / DBIL / GLC / IP / K / LDH / Na / RALB / TBIL / TC / TG / TP / gamma-GTP / PL: tissue Plasma
# [1] = 200 mg/kg, 72 h, tissue Blood, dose level Middle, time 3 day
# [2] = 200 mg/kg, 72 h, dose level Middle, time 3 day
# [3] = 200 mg/kg, […], dose level Middle, time 7 day
# [4] = 200 mg/kg, […], dose level Middle, time 14 day
# [5] = 200 mg/kg, […], dose level Middle, time 28 day
# [6] = 200 mg/kg, […], tissue Blood, dose level Middle, time 7 day
# [7] = 200 mg/kg, […], tissue Blood, dose level Middle, time 14 day
# [8] = 200 mg/kg, […], tissue Blood, dose level Middle, time 28 day
# [9] = 600 mg/kg, 72 h, dose level High, time 3 day
# [10] = 600 mg/kg, 72 h, tissue Blood, dose level High, time 3 day
# [11] = 600 mg/kg, […], dose level High, time 7 day
# [12] = 600 mg/kg, […], dose level High, time 14 day
# [13] = 600 mg/kg, […], dose level High, time 28 day
# [14] = 600 mg/kg, […], tissue Blood, dose level High, time 7 day
# [15] = 600 mg/kg, […], tissue Blood, dose level High, time 14 day
# [16] = 600 mg/kg, […], tissue Blood, dose level High, time 28 day
structure (smiles),measurement,setting,value
CC(=O)Nc1nnc(S(N)(=O)=O)s1 [ACETAZOLAMIDE],APTT,[1],19.2 s
same,Bas,[1],0%
same,Eos,[1],1.2%
same,Fbg,[1],313.4 mg/dL
same,Ht,[1],39.9%
same,MCH,[1],21.3 pg
same,MCHC,[1],34.1%
same,MCV,[1],62.6 fL
same,Mono,[1],3%
same,Neu,[1],18.6%
same,PT,[1],16.5 s
same,RBC,[1],637.6 x10_4/ul
same,Ret,[1],5.3%
same,KIDNEY_L,[2],1.1 g
same,KIDNEY_R,[2],1 g
same,KIDNEY_TOTAL,[2],2.1 g
same,ALP,[2],1836.6 IU/L
same,ALT,[2],45.2 IU/L
same,AST,[2],64.2 IU/L
same,BUN,[2],20 mg/dL
same,CRE,[2],0.2 mg/dL
same,Ca,[2],10.8 mg/dL
same,Cl,[2],109.6 meq/L
same,DBIL,[2],0 mg/dL
same,GLC,[2],175.2 mg/dL
same,IP,[2],7.5 mg/dL
same,K,[2],4.1 meq/L
same,LDH,[2],187.8 IU/L
same,Na,[2],142.4 meq/L
same,RALB,[2],3 g/dL
same,TBIL,[2],0.008 mg/dL
same,TC,[2],83.2 mg/dL
same,TG,[2],81.6 mg/dL
same,TP,[2],5.3 g/dL
same,gamma-GTP,[2],1.4 IU/L
same,TERMINAL_BW,[3],243.9 g
same,TERMINAL_BW,[4],281.3 g
same,TERMINAL_BW,[5],340.5 g
same,APTT,[6],20 s
same,Bas,[6],0%
same,Eos,[6],1%
same,Fbg,[6],338 mg/dL
same,Ht,[6],39%
same,MCH,[6],21.1 pg
same,MCHC,[6],35.4%
same,MCV,[6],59.7 fL
same,Mono,[6],2.6%
same,RBC,[6],653.4 x10_4/ul
same,Ret,[6],5.9%
same,APTT,[7],22 s
same,Bas,[7],0%
same,Eos,[7],0.6%
same,Fbg,[7],302.4 mg/dL
same,Ht,[7],40.2%
same,MCH,[7],20.4 pg
same,MCHC,[7],35.2%
same,MCV,[7],57.9 fL
same,Mono,[7],1.4%
same,Neu,[7],17.6%
same,RBC,[7],696.2 x10_4/ul
same,Ret,[7],4.5%
same,APTT,[8],24.7 s
same,Bas,[8],0%
same,Eos,[8],0.8%
same,Fbg,[8],312.2 mg/dL
same,Ht,[8],42%
same,MCH,[8],19.3 pg
same,MCHC,[8],34.7%
same,Mono,[8],1.8%
same,PT,[8],16.5 s
same,RBC,[8],757.6 x10_4/ul
same,Ret,[8],3%
same,KIDNEY_L,[3],1.1 g
same,KIDNEY_R,[3],1.1 g
same,KIDNEY_TOTAL,[3],2.2 g
same,KIDNEY_L,[4],1.2 g
same,KIDNEY_R,[4],1.2 g
same,KIDNEY_TOTAL,[4],2.5 g
same,KIDNEY_L,[5],1.4 g
same,KIDNEY_R,[5],1.4 g
same,KIDNEY_TOTAL,[5],2.8 g
same,ALP,[3],1704.2 IU/L
same,ALT,[3],44 IU/L
same,AST,[3],67.4 IU/L
same,BUN,[3],20.4 mg/dL
same,CRE,[3],0.2 mg/dL
same,Ca,[3],10.7 mg/dL
same,Cl,[3],110.8 meq/L
same,DBIL,[3],0 mg/dL
same,GLC,[3],186.8 mg/dL
same,IP,[3],6.7 mg/dL
same,K,[3],4.2 meq/L
same,LDH,[3],179 IU/L
same,Na,[3],143.6 meq/L
same,PL,[3],140.2 mg/dL
same,RALB,[3],2.9 g/dL
same,TBIL,[3],0 mg/dL
same,TC,[3],69.8 mg/dL
same,TG,[3],133.8 mg/dL
same,TP,[3],5.1 g/dL
same,gamma-GTP,[3],1.4 IU/L
same,ALP,[4],1326.4 IU/L
same,ALT,[4],42 IU/L
same,AST,[4],65.6 IU/L
same,BUN,[4],19 mg/dL
same,CRE,[4],0.2 mg/dL
same,Ca,[4],10.6 mg/dL
same,Cl,[4],107.4 meq/L
same,DBIL,[4],0 mg/dL
same,GLC,[4],184.4 mg/dL
same,IP,[4],6.7 mg/dL
same,K,[4],3.7 meq/L
same,LDH,[4],139 IU/L
same,Na,[4],143.8 meq/L
same,PL,[4],142.4 mg/dL
same,RALB,[4],3.1 g/dL
same,TBIL,[4],0.002 mg/dL
same,TC,[4],69.8 mg/dL
same,TP,[4],5.6 g/dL
same,gamma-GTP,[4],2 IU/L
same,ALP,[5],1449.8 IU/L
same,ALT,[5],44.2 IU/L
same,AST,[5],69 IU/L
same,BUN,[5],17.2 mg/dL
same,CRE,[5],0.2 mg/dL
same,Cl,[5],108.2 meq/L
same,DBIL,[5],0 mg/dL
same,GLC,[5],179.6 mg/dL
same,IP,[5],5.4 mg/dL
same,K,[5],3.8 meq/L
same,LDH,[5],136.8 IU/L
same,Na,[5],141.8 meq/L
same,PL,[5],159 mg/dL
same,RALB,[5],3.2 g/dL
same,TBIL,[5],0.002 mg/dL
same,TC,[5],81.4 mg/dL
same,TG,[5],136.4 mg/dL
same,TP,[5],6 g/dL
same,gamma-GTP,[5],2.4 IU/L
same,TERMINAL_BW,[9],195.4 g
same,APTT,[10],18.7 s
same,Bas,[10],0%
same,Eos,[10],1%
same,Fbg,[10],285 mg/dL
same,Ht,[10],41.9%
same,Lym,[10],86%
same,MCH,[10],20.5 pg
same,MCHC,[10],34.2%
same,MCV,[10],59.9 fL
same,Mono,[10],2.4%
same,Neu,[10],9.6%
same,PT,[10],17.7 s
same,RBC,[10],699.4 x10_4/ul
same,Ret,[10],3.9%
same,KIDNEY_L,[9],0.9 g
same,KIDNEY_R,[9],0.9 g
same,KIDNEY_TOTAL,[9],1.8 g
same,ALP,[9],1356 IU/L
same,ALT,[9],43 IU/L
same,AST,[9],57.8 IU/L
same,BUN,[9],22.6 mg/dL
same,CRE,[9],0.2 mg/dL
same,Ca,[9],10.8 mg/dL
same,Cl,[9],116 meq/L
same,DBIL,[9],0 mg/dL
same,GLC,[9],186.6 mg/dL
same,IP,[9],7.9 mg/dL
same,K,[9],4.1 meq/L
same,LDH,[9],211.2 IU/L
same,Na,[9],142.6 meq/L
same,PL,[9],151.8 mg/dL
same,RALB,[9],3 g/dL
same,TBIL,[9],0.006 mg/dL
same,TC,[9],84 mg/dL
same,TG,[9],90.6 mg/dL
same,TP,[9],5.4 g/dL
same,gamma-GTP,[9],1 IU/L
same,TERMINAL_BW,[11],226.8 g
same,TERMINAL_BW,[12],263.9 g
same,TERMINAL_BW,[13],330.6 g
same,APTT,[14],19.2 s
same,Bas,[14],0%
same,Eos,[14],1%
same,Fbg,[14],314.4 mg/dL
same,Ht,[14],39.9%
same,MCH,[14],21 pg
same,MCHC,[14],34.5%
same,MCV,[14],60.9 fL
same,Mono,[14],2.4%
same,RBC,[14],656.2 x10_4/ul
same,Ret,[14],6%
same,APTT,[15],21.5 s
same,Bas,[15],0%
same,Eos,[15],0.8%
same,Fbg,[15],315.6 mg/dL
same,MCH,[15],20.4 pg
same,MCHC,[15],35.3%
same,MCV,[15],57.8 fL
same,Mono,[15],2.4%
same,Neu,[15],23.6%
same,PT,[15],16.7 s
same,RBC,[15],708 x10_4/ul
same,Ret,[15],5.3%
same,APTT,[16],23 s
same,Bas,[16],0%
same,Eos,[16],1%
same,Fbg,[16],306.4 mg/dL
same,Ht,[16],42.1%
same,MCH,[16],19.4 pg
same,MCHC,[16],34%
same,MCV,[16],57 fL
same,Mono,[16],2.8%
same,PT,[16],16.9 s
same,RBC,[16],739.2 x10_4/ul
same,Ret,[16],3.4%
same,KIDNEY_L,[11],1.1 g
same,KIDNEY_R,[11],1.1 g
same,KIDNEY_TOTAL,[11],2.1 g
same,KIDNEY_L,[12],1.2 g
same,KIDNEY_R,[12],1.3 g
same,KIDNEY_TOTAL,[12],2.5 g
same,KIDNEY_L,[13],1.4 g
same,KIDNEY_R,[13],1.4 g
same,KIDNEY_TOTAL,[13],2.8 g
same,ALP,[11],1613 IU/L
same,ALT,[11],46 IU/L
same,AST,[11],71.6 IU/L
same,BUN,[11],20 mg/dL
same,CRE,[11],0.2 mg/dL
same,Ca,[11],10.9 mg/dL
same,Cl,[11],114.2 meq/L
same,DBIL,[11],0 mg/dL
same,GLC,[11],179.8 mg/dL
same,IP,[11],7.2 mg/dL
same,K,[11],4.2 meq/L
same,LDH,[11],162.8 IU/L
same,Na,[11],144.6 meq/L
same,PL,[11],167.4 mg/dL
same,RALB,[11],3 g/dL
same,TBIL,[11],0 mg/dL
same,TC,[11],84.2 mg/dL
same,TG,[11],124 mg/dL
same,TP,[11],5.4 g/dL
same,gamma-GTP,[11],1.2 IU/L
same,ALP,[12],1257.6 IU/L
same,ALT,[12],40.4 IU/L
same,AST,[12],61.4 IU/L
same,BUN,[12],18.8 mg/dL
same,CRE,[12],0.2 mg/dL
same,Ca,[12],10.5 mg/dL
same,Cl,[12],110.6 meq/L
same,DBIL,[12],0 mg/dL
same,GLC,[12],181.8 mg/dL
same,IP,[12],7 mg/dL
same,K,[12],3.7 meq/L
same,LDH,[12],141.6 IU/L
same,Na,[12],143.4 meq/L
same,PL,[12],152.2 mg/dL
same,RALB,[12],3 g/dL
same,TBIL,[12],0.004 mg/dL
same,TC,[12],76.2 mg/dL
same,TG,[12],130.4 mg/dL
same,TP,[12],5.5 g/dL
same,gamma-GTP,[12],1.8 IU/L
same,ALP,[13],1120.2 IU/L
same,AST,[13],66.4 IU/L
same,BUN,[13],18.4 mg/dL
same,CRE,[13],0.2 mg/dL
same,Ca,[13],10.2 mg/dL
same,Cl,[13],111.2 meq/L
same,DBIL,[13],0 mg/dL
same,GLC,[13],178 mg/dL
same,IP,[13],5.6 mg/dL
same,K,[13],3.8 meq/L
same,LDH,[13],149 IU/L
same,Na,[13],142.6 meq/L
same,PL,[13],136.2 mg/dL
same,RALB,[13],3.2 g/dL
same,TBIL,[13],0.01 mg/dL
same,TC,[13],71.6 mg/dL
same,TG,[13],115.4 mg/dL
same,TP,[13],5.6 g/dL
same,gamma-GTP,[13],2.2 IU/L
